Results from PubChem BioAssay AID192 (DTP/NCI, 2004).
Inconclusive results and toxic doses are left out. Bridge positions count the residues as written; N and C are the ends. Square brackets hold non-standard residues; d marks the D form. Peptide text beside a SMILES is read from it. I, II: the chains in the order shown. * marks the point of attachment. Quinoxaline2carbonyl = O=C(c1cnc2ccccc2n1)*; NMeV = CN[CH](C(=O)O)C(C)C; NMeC = CN[CH](CS)C(=O)O

Test system: BDF1 mice, B16 melanoma ip, median survival T/C
Experiment: NCI In Vivo Anticancer Drug Screen. Data for tumor model B16 Melanoma (intraperitoneal) in B6D2F1 (BDF1) mice
Settings: endpoint: median survival time, higher = longer survival
How it was run: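 Mice with transplantable tumors; drug vs vehicle groups; endpoint survival or tumor size; value = T/C.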

[1] = dose: 50.0 mg/kg/injection, schedule: Q01DX009 (ip), vehicle: Klucel (hydroxypropylcellulose) (HPC)
[2] = dose: 100.0 mg/kg/injection, schedule: Q01DX009 (ip), vehicle: Klucel (hydroxypropylcellulose) (HPC)
[3] = dose: 200.0 mg/kg/injection, schedule: Q01DX009 (ip), vehicle: Klucel (hydroxypropylcellulose) (HPC)
[4] = dose: 400.0 mg/kg/injection, schedule: Q01DX009 (ip), vehicle: Klucel (hydroxypropylcellulose) (HPC)
[5] = dose: 6.25 mg/kg/injection, schedule: Q01DX009 (ip), vehicle: Klucel (hydroxypropylcellulose) (HPC)
[6] = dose: 12.5 mg/kg/injection, schedule: Q01DX009 (ip), vehicle: saline
[7] = dose: 25.0 mg/kg/injection, schedule: Q01DX009 (ip), vehicle: saline

In the case of `CC1NC(=O)C(NC(=O)c2cnc3ccccc3n2)COC(=O)C(C(C)C)N(C)C(=O)C2CSSCC(C(=O)N(C)C(C(C)C)C(=O)OCC(NC(=O)c3cnc4ccccc4n3)C(=O)NC(C)C(=O)N2C)N(C)C1=O` (stereo not drawn) (I: Quinoxaline2carbonyl-SA[NMeC][NMeV] / II: Quinoxaline2carbonyl-SA[NMeC][NMeV]; ester I:1-II:C, I:C-II:1; disulfide I:3-II:3; configuration not given here), the T/C (dose: 3.0 micrograms/kg/injection, schedule: Q01DX009 (ip), vehicle: Klucel (hydroxypropylcellulose) (HPC)) is reported as 111 % of control, the T/C (dose: 6.0 micrograms/kg/injection, schedule: Q01DX009 (ip), vehicle: Klucel (hydroxypropylcellulose) (HPC)) is reported as 122 % of control and the T/C (dose: 22.5 micrograms/kg/injection, schedule: Q01DX009 (ip), vehicle: Klucel (hydroxypropylcellulose) (HPC)) is reported as 169 % of control. For the same compound, the T/C (dose: 24.0 micrograms/kg/injection, schedule: Q01DX009 (ip), vehicle: Klucel (hydroxypropylcellulose) (HPC)) was 151 % of control, the T/C (dose: 45.0 micrograms/kg/injection, schedule: Q01DX009 (ip), vehicle: Klucel (hydroxypropylcellulose) (HPC)) was 187 % of control and the T/C (dose: 48.0 micrograms/kg/injection, schedule: Q01DX009 (ip), vehicle: Klucel (hydroxypropylcellulose) (HPC)) was 161 % of control. The T/C (dose: 96.0 micrograms/kg/injection, schedule: Q01DX009 (ip), vehicle: Klucel (hydroxypropylcellulose) (HPC)) was 188 % of control.

`CCCCCCCCCCCCCCOC(=O)Cl` was tested, and the T/C [1] was 90 % of control, the T/C [2] was 92 % of control and the T/C [3] was 96 % of control. The T/C [4] was 91 % of control.

`COc1ccc(NC(=S)Nc2ccccn2)cc1` was tested, and the T/C [2] was 107 % of control, the T/C (dose: 100.0 mg/kg/injection, schedule: Q01DX009 (ip), vehicle: saline with Tween-80) was 100 % of control and the T/C [3] was 100 % of control. For the same compound, the T/C (dose: 200.0 mg/kg/injection, schedule: Q01DX009 (ip), vehicle: saline with Tween-80) was 100 % of control and the T/C [4] was 92 % of control.

With `Nc1ccc(-c2ccc(N)c(Cl)c2)cc1Cl` the T/C (dose: 100.0 mg/kg/injection, schedule: Q04DX003 (ip), vehicle: Klucel (hydroxypropylcellulose) (HPC)) was 111 % of control, the T/C (dose: 200.0 mg/kg/injection, schedule: Q04DX003 (ip), vehicle: Klucel (hydroxypropylcellulose) (HPC)) was 108 % of control and the T/C (dose: 400.0 mg/kg/injection, schedule: Q04DX003 (ip), vehicle: Klucel (hydroxypropylcellulose) (HPC)) was 100 % of control.

In the case of `CC[C@@H]1C[C@H]2CC3c4[nH]c5ccccc5c4CCN(C2)C31`, the T/C (dose: 5.0 mg/kg/injection, schedule: Q01DX009 (ip), vehicle: saline with Tween-80) is reported as 110 % of control, the T/C (dose: 10.0 mg/kg/injection, schedule: Q01DX009 (ip), vehicle: saline with Tween-80) is reported as 107 % of control and the T/C (dose: 20.0 mg/kg/injection, schedule: Q01DX009 (ip), vehicle: saline with Tween-80) is reported as 97 % of control.

In the case of `CC1(C)N=C(N)N=C(N)N1c1ccc(Cl)c(Cl)c1`, the T/C [5] is reported as 117 % of control, the T/C (dose: 6.25 mg/kg/injection, schedule: Q04DX003 (ip), vehicle: Klucel (hydroxypropylcellulose) (HPC)) is reported as 102 % of control and the T/C (dose: 12.5 mg/kg/injection, schedule: Q04DX003 (ip), vehicle: Klucel (hydroxypropylcellulose) (HPC)) is reported as 103 % of control. The T/C (dose: 25.0 mg/kg/injection, schedule: Q04DX003 (ip), vehicle: Klucel (hydroxypropylcellulose) (HPC)) was 114 % of control and the T/C (dose: 50.0 mg/kg/injection, schedule: Q04DX003 (ip), vehicle: Klucel (hydroxypropylcellulose) (HPC)) was 116 % of control.

With `O=[N+]([O-])c1ccc2scc3c4ccccc4nc-3c2c1` the T/C (dose: 6.25 mg/kg/injection, schedule: Q01DX009 (ip), vehicle: saline) was 90 % of control and the T/C [6] was 99 % of control.

With `C=CCCCC[P+](c1ccccc1)(c1ccccc1)c1ccccc1` the T/C (dose: 1.5 mg/kg/injection, schedule: Q01DX009 (ip), vehicle: saline) was 102 % of control and the T/C (dose: 3.0 mg/kg/injection, schedule: Q01DX009 (ip), vehicle: saline) was 92 % of control.

In the case of `NC(CCCC(=O)O)P(=O)(O)O` (stereo not drawn), the T/C [1] is reported as 98 % of control and the T/C [2] is reported as 98 % of control.

For `O=c1cc2oc3c(O)c(O)ccc3c3c4ccccc4c(=O)c(c1)c23`, the T/C [6] was 103 % of control and the T/C [7] was 90 % of control.

With `O=C1c2ccccc2C(=O)c2c3c(cc(NCCNCCO)c21)N(CCO)CCN3` the T/C (dose: 12.5 mg/kg/injection, schedule: Q01DX009 (ip), vehicle: DMSO) was 121 % of control, the T/C (dose: 100.0 mg/kg/injection, schedule: Q01DX009 (ip), vehicle: DMSO) was 162 % of control and the T/C (dose: 200.0 mg/kg/injection, schedule: Q01DX009 (ip), vehicle: DMSO) was 194 % of control.

With `CCCCCC(CN(C)C)C(O)/C=C/c1ccccc1Cl` (stereo not drawn) the T/C (dose: 6.0 mg/kg/injection, schedule: Q01DX009 (ip), vehicle: saline) was 96 % of control, the T/C (dose: 12.0 mg/kg/injection, schedule: Q01DX009 (ip), vehicle: saline) was 98 % of control and the T/C [7] was 103 % of control.

`CS(=N)(=O)c1ccccc1` (stereo not drawn) was tested, and the T/C (dose: 100.0 mg/kg/injection, schedule: Q04DX003 (ip), vehicle: saline with Tween-80) was 89 % of control, the T/C (dose: 200.0 mg/kg/injection, schedule: Q04DX003 (ip), vehicle: saline with Tween-80) was 100 % of control and the T/C (dose: 400.0 mg/kg/injection, schedule: Q04DX003 (ip), vehicle: saline with Tween-80) was 123 % of control.

In the case of `O=c1[nH]c2ccccc2n1C1CCN(CCCC(c2ccc(F)cc2)c2ccc(F)cc2)CC1`, the T/C (dose: 1.56 mg/kg/injection, schedule: Q01DX009 (ip), vehicle: Klucel (hydroxypropylcellulose) (HPC)) is reported as 102 % of control, the T/C (dose: 3.12 mg/kg/injection, schedule: Q01DX009 (ip), vehicle: Klucel (hydroxypropylcellulose) (HPC)) is reported as 100 % of control and the T/C [5] is reported as 100 % of control. The T/C (dose: 12.5 mg/kg/injection, schedule: Q01DX009 (ip), vehicle: Klucel (hydroxypropylcellulose) (HPC)) was 94 % of control, the T/C (dose: 25.0 mg/kg/injection, schedule: Q01DX009 (ip), vehicle: Klucel (hydroxypropylcellulose) (HPC)) was 105 % of control and the T/C [1] was 87 % of control. For the same compound, the T/C [2] was 87 % of control.

`O=C1OC(C(O)CO)C(O)=C1O` (stereo not drawn) was tested, and the T/C (dose: 0.12 mg/kg/injection, schedule: Q01DX009 (ip), vehicle: saline) was 100 % of control, the T/C (dose: 0.25 mg/kg/injection, schedule: Q01DX009 (ip), vehicle: saline) was 110 % of control and the T/C (dose: 0.5 mg/kg/injection, schedule: Q01DX009 (ip), vehicle: saline) was 105 % of control. For the same compound, the T/C (dose: 1.0 mg/kg/injection, schedule: Q01DX001 (ip), vehicle: saline) was 102 % of control, the T/C (dose: 1.0 mg/kg/injection, schedule: Q01DX009 (ip), vehicle: saline) was 110 % of control and the T/C (dose: 2.0 mg/kg/injection, schedule: Q01DX001 (ip), vehicle: saline) was 100 % of control. For the same compound, the T/C (dose: 2.0 mg/kg/injection, schedule: Q01DX009 (ip), vehicle: saline) was 110 % of control, the T/C (dose: 4.0 mg/kg/injection, schedule: Q01DX001 (ip), vehicle: saline) was 95 % of control and the T/C (dose: 4.0 mg/kg/injection, schedule: Q01DX009 (ip), vehicle: saline) was 105 % of control. The T/C (dose: 8.0 mg/kg/injection, schedule: Q01DX001 (ip), vehicle: saline) was 102 % of control, the T/C (dose: 8.0 mg/kg/injection, schedule: Q01DX009 (ip), vehicle: saline) was 110 % of control and the T/C (dose: 16.0 mg/kg/injection, schedule: Q01DX001 (ip), vehicle: saline) was 100 % of control. For the same compound, the T/C (dose: 16.0 mg/kg/injection, schedule: Q01DX009 (ip), vehicle: saline) was 95 % of control, the T/C (dose: 32.0 mg/kg/injection, schedule: Q01DX001 (ip), vehicle: saline) was 100 % of control and the T/C (dose: 64.0 mg/kg/injection, schedule: Q01DX001 (ip), vehicle: saline) was 97 % of control.

With `C=CCCC(=O)CCCC(=O)O[C@@H]1[C@@H]2[C@H](CC1(C)C)[C@H](O)[C@@]13O[C@@H]1[C@H](O)[C@@]1(CO1)[C@@]23C` the T/C (dose: 6.2 micrograms/kg/injection, schedule: Q01DX009 (ip), vehicle: saline) was 98 % of control, the T/C (dose: 6.3 micrograms/kg/injection, schedule: Q01DX009 (ip), vehicle: Klucel (hydroxypropylcellulose) (HPC)) was 107 % of control and the T/C (dose: 12.5 micrograms/kg/injection, schedule: Q01DX009 (ip), vehicle: Klucel (hydroxypropylcellulose) (HPC)) was 121 % of control. For the same compound, the T/C (dose: 12.5 micrograms/kg/injection, schedule: Q01DX009 (ip), vehicle: saline) was 97 % of control, the T/C (dose: 25.0 micrograms/kg/injection, schedule: Q01DX009 (ip), vehicle: saline) was 106 % of control and the T/C (dose: 50.0 micrograms/kg/injection, schedule: Q01DX009 (ip), vehicle: Klucel (hydroxypropylcellulose) (HPC)) was 91 % of control. The T/C (dose: 50.0 micrograms/kg/injection, schedule: Q01DX009 (ip), vehicle: saline) was 102 % of control.
